Experimental data taken from US20020137929A1, “1 - (3-heterocyclylphenyl) isothiourea, -isourea, -guanidine and -amidine herbicidal agents” (Intellectual Property Department, BASF Aktiengesellschaft, priority 1998, published 2002).

Experiments:
ABUTH (Velvetleaf) [1] = experiment: Postemergence herbicidal evaluation; type: in vivo, Abutilon theophrasti; details: postemergence
Outline: (§1)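 Compound is applied as a foliar spray to seedlings about two weeks old, formulated in equal parts acetone and water with 0.5% TWEEN 20 and delivered at 40 psi to give about 0.0156–0.500 kg per hectare. Injury is rated visually 0–9 after four to five weeks.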

CASOB (Sicklepod) = experiment: Preemergence herbicidal evaluation; type: in vivo, Cassia obtusifolia; details: preemergence, rated 4-5 weeks after treatment, 0-9 scale
Outline: (§2)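 Each species is sown separately in potting soil over roughly an inch of soil before any emergence. The soil surface then receives an aqueous acetone spray delivering about 0.0156 to 0.500 kg/ha of compound. After four to five weeks, injury is scored from 0 to 9 relative to a control.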

[2] = tested on: GLXMAW (Soybean, Williams); experiment: Postemergence herbicidal evaluation; type: in vivo, Glycine max, (L.) Merr. cv Williams; details: postemergence
Outline: as §1

SETVI (Foxtail, Green) [3] = experiment: Preemergence herbicidal evaluation; type: in vivo, Setaria viridis; details: preemergence, rated 4-5 weeks after treatment, 0-9 scale
Outline: as §2

ECHCG (Barnyardgrass) = experiment: Postemergence herbicidal evaluation; type: in vivo, Echinochloa crus-galli; details: postemergence
Outline: as §1

CYPIR (Rice Flatsedge) = experiment: Postemergence weed control under flooded paddy conditions; type: in vivo, Cyperus iria; details: postemergence weeds, rated 3 to 4 weeks after treatment
Outline: (§3)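 Flood-water application, about 0.0313–0.500 kg/ha a.i. in aqueous/acetone 50/50 v/v; water depth 1.5–3 cm throughout. Weeds 3–5 cm, rice 1.5–2.5 leaf. Greenhouse; 0–9 visual rating vs control at 3–4 wk.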

ABUTH (Velvetleaf) [4] = experiment: Preemergence herbicidal evaluation; type: in vivo, Abutilon theophrasti; details: preemergence, rated 4-5 weeks after treatment, 0-9 scale
Outline: as §2

ORYSAT (Rice, Tebonnet) = experiment: Postemergence herbicidal evaluation; type: in vivo, Oryza sativa, (L.) Tebonnet; details: postemergence
Outline: as §1

[5] = tested on: SAGPY (Arrowhead (Pygmaea)); experiment: Preemergence weed control under flooded paddy conditions; type: in vivo, Sagittaria pygmaea; details: rated 3-4 weeks after treatment
Outline: (§4)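 Seeds or propagules sown in top 0.5 cm of silt loam soil, flooded 1.5 to 3 cm above surface throughout. Compound in 50/50 v/v aqueous/acetone pipetted into flood water at about 0.0313 to 0.500 kg/ha. Visual 0-9 rating versus control after three to four weeks in greenhouse.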

MOOVA (Monochoria) = experiment: as above; type: in vivo, Monochoria vaginalis; details: rated 3-4 weeks after treatment
Outline: as §4

[6] = tested on: TRZAWR (Wheat, Winter, cv Riband); experiment: Postemergence herbicidal evaluation; type: in vivo, Triticum aestivum; details: postemergence
Outline: as §1

AMBEL (Ragweed, Common) = experiment: Postemergence herbicidal evaluation; type: in vivo, Ambrosia artemisifolia; details: postemergence
Outline: as §1

SETVI (Foxtail, Green) [7] = experiment: Postemergence herbicidal evaluation; type: in vivo, Setaria viridis; details: postemergence
Outline: as §1

[8] = tested on: SAGPY (Arrowhead (Pygmaea)); experiment: Postemergence weed control under flooded paddy conditions; type: in vivo, Sagittaria pygmaea; details: postemergence weeds, rated 3 to 4 weeks after treatment
Outline: as §3

COC(=O)CC1SC(=Nc2cc(-n3c(=O)cc(C(F)(F)F)n(C)c3=O)c(F)cc2Cl)N(C)C1=O (stereo not shown) [Compound 88, Methyl 2-{{2-chloro-5-[3,6-dihydro-3-methyl-2,6-dioxo-4-(trifluoromethyl)-1(2H)-pyrimidinyl]-4-fluorophenyl}imino}-3-methyl-4-oxo-5-thiazolidineacetate]
1.0: ECHCG herbicidal rating (ECHCG (Barnyardgrass); rate 0.0158 kg/ha)
7.5: TRZAWR herbicidal rating ([6]; rate 0.0630 kg/ha)
3.0: CASOB rating (CASOB (Sicklepod); 0.1250 kg/ha) | SETVI rating (SETVI (Foxtail, Green) [3]; 0.0625 kg/ha)
9.0: ABUTH herbicidal rating (ABUTH (Velvetleaf) [1]; rate 0.0158 kg/ha) | ABUTH herbicidal rating (ABUTH (Velvetleaf) [1]; rate 0.0315 kg/ha) | ABUTH herbicidal rating (ABUTH (Velvetleaf) [1]; rate 0.0630 kg/ha) | CASOB rating (CASOB (Sicklepod); 0.2500 kg/ha) | GLXMAW herbicidal rating ([2]; rate 0.0630 kg/ha) | SETVI rating (SETVI (Foxtail, Green) [3]; 0.2500 kg/ha) | ABUTH rating (ABUTH (Velvetleaf) [4]; 0.0156 kg/ha) | ABUTH rating (ABUTH (Velvetleaf) [4]; 0.0313 kg/ha) | ABUTH rating (ABUTH (Velvetleaf) [4]; 0.0625 kg/ha) | ABUTH rating (ABUTH (Velvetleaf) [4]; 0.1250 kg/ha) | ABUTH rating (ABUTH (Velvetleaf) [4]; 0.2500 kg/ha) | SAGPY herbicidal effect rating ([5]; 0.0625 kg/ha) | SAGPY herbicidal effect rating ([5]; 0.1250 kg/ha) | SAGPY herbicidal effect rating ([5]; 0.2500 kg/ha) | MOOVA herbicidal effect rating (MOOVA (Monochoria); 0.0313 kg/ha) | MOOVA herbicidal effect rating (MOOVA (Monochoria); 0.0625 kg/ha) | MOOVA herbicidal effect rating (MOOVA (Monochoria); 0.1250 kg/ha) | MOOVA herbicidal effect rating (MOOVA (Monochoria); 0.2500 kg/ha) | AMBEL herbicidal rating (AMBEL (Ragweed, Common); rate 0.0158 kg/ha) | AMBEL herbicidal rating (AMBEL (Ragweed, Common); rate 0.0315 kg/ha) | AMBEL herbicidal rating (AMBEL (Ragweed, Common); rate 0.0630 kg/ha) | SETVI herbicidal rating (SETVI (Foxtail, Green) [7]; rate 0.0158 kg/ha) | SETVI herbicidal rating (SETVI (Foxtail, Green) [7]; rate 0.0315 kg/ha) | SETVI herbicidal rating (SETVI (Foxtail, Green) [7]; rate 0.0630 kg/ha) | Herbicidal rating SAGPY ([8]; Rate 0.0625 kg/ha) | Herbicidal rating SAGPY ([8]; Rate 0.1250 kg/ha) | Herbicidal rating SAGPY ([8]; Rate 0.2500 kg/ha)
5.5: ORYSAT herbicidal rating (ORYSAT (Rice, Tebonnet); rate 0.0315 kg/ha) | TRZAWR herbicidal rating ([6]; rate 0.0158 kg/ha)
7.0: SETVI rating (SETVI (Foxtail, Green) [3]; 0.1250 kg/ha) | ECHCG herbicidal rating (ECHCG (Barnyardgrass); rate 0.0315 kg/ha) | ECHCG herbicidal rating (ECHCG (Barnyardgrass); rate 0.0630 kg/ha) | TRZAWR herbicidal rating ([6]; rate 0.0315 kg/ha)
6.0: ORYSAT herbicidal rating (ORYSAT (Rice, Tebonnet); rate 0.0630 kg/ha) | SAGPY herbicidal effect rating ([5]; 0.0313 kg/ha) | Herbicidal rating SAGPY ([8]; Rate 0.0313 kg/ha)
8.5: GLXMAW herbicidal rating ([2]; rate 0.0158 kg/ha) | GLXMAW herbicidal rating ([2]; rate 0.0315 kg/ha)
0.0: CASOB rating (CASOB (Sicklepod); 0.0156 kg/ha) | CASOB rating (CASOB (Sicklepod); 0.0313 kg/ha) | CASOB rating (CASOB (Sicklepod); 0.0625 kg/ha) | SETVI rating (SETVI (Foxtail, Green) [3]; 0.0156 kg/ha) | SETVI rating (SETVI (Foxtail, Green) [3]; 0.0313 kg/ha) | Herbicidal rating CYPIR (CYPIR (Rice Flatsedge); Rate 0.0313 kg/ha) | Herbicidal rating CYPIR (CYPIR (Rice Flatsedge); Rate 0.0625 kg/ha) | Herbicidal rating CYPIR (CYPIR (Rice Flatsedge); Rate 0.1250 kg/ha) | Herbicidal rating CYPIR (CYPIR (Rice Flatsedge); Rate 0.2500 kg/ha)
2.0: ORYSAT herbicidal rating (ORYSAT (Rice, Tebonnet); rate 0.0158 kg/ha)

CN1C(=O)C(CC(N)=O)SC1=Nc1cc(-n2c(=O)cc(C(F)(F)F)n(C)c2=O)c(F)cc1Cl (stereo not shown) [Compound 92, 2-{{2-Chloro-5-[3,6-dihydro-3-methyl-2,6-dioxo-4-(trifluoromethyl)-1(2H)-pyrimidinyl]-4-fluorophenyl}imino}-3-methyl-4-oxo-5-thiazolidineacetamide]
6.0: TRZAWR herbicidal rating ([6]; rate 0.0315 kg/ha)
3.0: CASOB rating (CASOB (Sicklepod); 0.2500 kg/ha) | Herbicidal rating CYPIR (CYPIR (Rice Flatsedge); Rate 0.0313 kg/ha) | Herbicidal rating CYPIR (CYPIR (Rice Flatsedge); Rate 0.0625 kg/ha) | ABUTH rating (ABUTH (Velvetleaf) [4]; 0.0313 kg/ha)
0.0: CASOB rating (CASOB (Sicklepod); 0.0156 kg/ha) | CASOB rating (CASOB (Sicklepod); 0.0313 kg/ha) | CASOB rating (CASOB (Sicklepod); 0.0625 kg/ha) | SETVI rating (SETVI (Foxtail, Green) [3]; 0.0156 kg/ha) | SETVI rating (SETVI (Foxtail, Green) [3]; 0.0313 kg/ha) | SETVI rating (SETVI (Foxtail, Green) [3]; 0.0625 kg/ha) | SETVI rating (SETVI (Foxtail, Green) [3]; 0.1250 kg/ha) | ECHCG herbicidal rating (ECHCG (Barnyardgrass); rate 0.0158 kg/ha) | ABUTH rating (ABUTH (Velvetleaf) [4]; 0.0156 kg/ha) | SAGPY herbicidal effect rating ([5]; 0.0313 kg/ha) | SAGPY herbicidal effect rating ([5]; 0.0625 kg/ha) | AMBEL herbicidal rating (AMBEL (Ragweed, Common); rate 0.0158 kg/ha) | SETVI herbicidal rating (SETVI (Foxtail, Green) [7]; rate 0.0158 kg/ha) | Herbicidal rating SAGPY ([8]; Rate 0.0313 kg/ha) | Herbicidal rating SAGPY ([8]; Rate 0.0625 kg/ha)
9.0: ABUTH herbicidal rating (ABUTH (Velvetleaf) [1]; rate 0.0158 kg/ha) | ABUTH herbicidal rating (ABUTH (Velvetleaf) [1]; rate 0.0315 kg/ha) | ABUTH herbicidal rating (ABUTH (Velvetleaf) [1]; rate 0.0630 kg/ha) | GLXMAW herbicidal rating ([2]; rate 0.0315 kg/ha) | GLXMAW herbicidal rating ([2]; rate 0.0630 kg/ha) | SETVI rating (SETVI (Foxtail, Green) [3]; 0.2500 kg/ha) | ABUTH rating (ABUTH (Velvetleaf) [4]; 0.0625 kg/ha) | ABUTH rating (ABUTH (Velvetleaf) [4]; 0.1250 kg/ha) | ABUTH rating (ABUTH (Velvetleaf) [4]; 0.2500 kg/ha) | SAGPY herbicidal effect rating ([5]; 0.2500 kg/ha) | MOOVA herbicidal effect rating (MOOVA (Monochoria); 0.0313 kg/ha) | MOOVA herbicidal effect rating (MOOVA (Monochoria); 0.0625 kg/ha) | MOOVA herbicidal effect rating (MOOVA (Monochoria); 0.1250 kg/ha) | MOOVA herbicidal effect rating (MOOVA (Monochoria); 0.2500 kg/ha) | AMBEL herbicidal rating (AMBEL (Ragweed, Common); rate 0.0315 kg/ha) | AMBEL herbicidal rating (AMBEL (Ragweed, Common); rate 0.0630 kg/ha) | SETVI herbicidal rating (SETVI (Foxtail, Green) [7]; rate 0.0315 kg/ha) | SETVI herbicidal rating (SETVI (Foxtail, Green) [7]; rate 0.0630 kg/ha) | Herbicidal rating SAGPY ([8]; Rate 0.2500 kg/ha)
5.0: Herbicidal rating CYPIR (CYPIR (Rice Flatsedge); Rate 0.1250 kg/ha) | TRZAWR herbicidal rating ([6]; rate 0.0158 kg/ha)
7.5: GLXMAW herbicidal rating ([2]; rate 0.0158 kg/ha)
1.0: ECHCG herbicidal rating (ECHCG (Barnyardgrass); rate 0.0315 kg/ha) | ECHCG herbicidal rating (ECHCG (Barnyardgrass); rate 0.0630 kg/ha)
4.0: SAGPY herbicidal effect rating ([5]; 0.1250 kg/ha) | Herbicidal rating SAGPY ([8]; Rate 0.1250 kg/ha)
3.5: ORYSAT herbicidal rating (ORYSAT (Rice, Tebonnet); rate 0.0630 kg/ha)
7.0: Herbicidal rating CYPIR (CYPIR (Rice Flatsedge); Rate 0.2500 kg/ha)
2.0: ORYSAT herbicidal rating (ORYSAT (Rice, Tebonnet); rate 0.0315 kg/ha)
1.5: ORYSAT herbicidal rating (ORYSAT (Rice, Tebonnet); rate 0.0158 kg/ha)
6.5: TRZAWR herbicidal rating ([6]; rate 0.0630 kg/ha)
